According to ChEMBL document CHEMBL1152043, “Interphenylene phenyl oxazoles: novel, potent thromboxane receptor antagonists” (Bioorg Med Chem Lett, 1992):

What was measured:
Thromboxane A2 receptor = target: T1, Thromboxane A2 receptor (Homo sapiens, UniProt P21731); assay: Dissociation constant was determined from radioligand binding studies in human platelet membranes using Thromboxane A2 receptor radioligand [3H]-SQ 29,548.; format: cell membranes
T1 sequence (P21731 whole entry): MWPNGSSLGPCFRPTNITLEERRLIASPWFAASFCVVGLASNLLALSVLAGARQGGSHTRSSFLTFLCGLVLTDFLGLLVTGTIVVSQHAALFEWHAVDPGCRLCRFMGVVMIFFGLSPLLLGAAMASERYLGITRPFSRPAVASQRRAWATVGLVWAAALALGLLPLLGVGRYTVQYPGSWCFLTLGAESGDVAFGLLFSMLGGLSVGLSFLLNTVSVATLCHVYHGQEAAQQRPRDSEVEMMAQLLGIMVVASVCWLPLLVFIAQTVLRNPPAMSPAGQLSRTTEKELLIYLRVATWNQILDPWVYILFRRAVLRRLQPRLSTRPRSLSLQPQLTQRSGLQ

Homo sapiens [1] = species on record: Homo sapiens; assay: Tested for inhibition of platelet aggregation induced by arachidonic acid (AAIPA) in human platelet rich plasma; format: functional; details: read-out: I50
Homo sapiens [2] = species on record: Homo sapiens; assay: Tested for inhibition of platelet aggregation induced by U-46,619 (U-IPA) in human platelet rich plasma; format: functional; details: read-out: I50

Row | SMILES | Kd (Thromboxane A2 receptor) | IC50 (Homo sapiens [1]) | IC50 (Homo sapiens [2])
1 | O=C(O)Cc1ccccc1Cc1ccccc1-c1nc(C(=O)NCCCCC2CCCCC2)co1 | – | 67000 nM | 330000 nM
2 | O=C(O)Cc1cccc(Cc2ccccc2-c2nc(C(=O)NCCCCC3CCCCC3)co2)c1 | – | 2000 nM | 6000 nM
3 | O=C(O)CCc1cccc(Cc2ccccc2-c2nc(C(=O)NCCCCC3CCCCC3)co2)c1 | – | 470 nM | 2000 nM

More lines, now with the values ahead:

Row | Kd (Thromboxane A2 receptor) | IC50 (Homo sapiens [1]) | IC50 (Homo sapiens [2]) | SMILES
4 | 19 nM | 31 nM | 110 nM | O=C(O)CCc1ccccc1Cc1ccccc1-c1nc(C(=O)NCCCCC2CCCCC2)co1
5 | – | 58 nM | 630 nM | O=C(O)CCCc1ccccc1Cc1ccccc1-c1nc(C(=O)NCCCCC2CCCCC2)co1
